According to ChEMBL document CHEMBL1201862, “PubChem BioAssay data set” (2004):
Structures can show the parent of a compound that is named as a salt. The source made the active and inactive calls.

Assays:
[1] = viability loss of HPDE-C7K cells – cell-based, fluorescence, HTS, primary screen (AID 431); assay type: functional; details: Homo sapiens
[2] = system: P388; assay: cells; assay type: functional; details: Mus musculus
[3] = system: SN12K1; assay: cells; assay type: functional; details: Homo sapiens
[4] = Luminescence Cell-Based Dose Retest to Confirm Inhibitors of Cancer Stem Cells. [Related pubchem assays (depositor defined):AID2717, AID2721]; assay type: functional; details: Homo sapiens
[5] = molecular target: T1, Ubiquitin-conjugating enzyme E2 N (Homo sapiens, UniProt P61088); assay type: functional;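 also: Dose-response confirmation in a TR-FRET assay detecting UBC13-driven polyubiquitin chain formation, inhibition measured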
T1 sequence (P61088 whole entry): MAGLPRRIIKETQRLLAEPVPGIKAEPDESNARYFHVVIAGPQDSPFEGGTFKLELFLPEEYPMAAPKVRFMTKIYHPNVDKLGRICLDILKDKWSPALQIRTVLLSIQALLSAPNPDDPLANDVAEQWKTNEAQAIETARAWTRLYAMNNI

[6] = molecular target: Heat shock protein HSP 90-alpha (Homo sapiens, UniProt P07900); assay type: functional, organism-based
[7] = reduction of Shn3 3'UTR-driven luciferase in osteoblasts – cell-based, Clone20 osteoblasts, firefly luciferase, cherry-picked, dose response (AID 624132); assay type: functional;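 also: firefly luciferase luminescence from reporter carrying the Shn3 3'UTR in osteoblasts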
[8] = loss of viability in HepG2 cells – cell-based, CellTiter-Glo, cherry-picked, cytotoxicity control for Shn3 inhibitor project, dose response (AID 624134); assay type: functional
[9] = system: P388/ADR; assay: cells; assay type: functional; details: Mus musculus
[10] = non-specific 3'UTR reporter inhibition in Clone20-Shn3RL – cell-based, Renilla luciferase, cherry-picked, counter-screen for Shn3 inhibitor project, dose response (AID 624133); assay type: functional
[11] = molecular target: T2, Sentrin-specific protease 8 (Homo sapiens, UniProt Q96LD8); assay type: functional;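 also: luminescence read-out of SENP8 inhibition, dose-response confirmation following an ultra-high-throughput screen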
T2 sequence (Q96LD8 whole entry): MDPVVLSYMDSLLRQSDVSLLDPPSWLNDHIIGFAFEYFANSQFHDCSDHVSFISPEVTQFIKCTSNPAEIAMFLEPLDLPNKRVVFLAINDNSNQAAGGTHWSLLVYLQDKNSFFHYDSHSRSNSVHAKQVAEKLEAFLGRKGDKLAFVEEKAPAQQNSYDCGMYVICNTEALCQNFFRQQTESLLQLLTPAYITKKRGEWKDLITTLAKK

[12] = molecular target: T3, Sentrin-specific protease 7 (Homo sapiens, UniProt Q9BQF6); assay type: functional;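 also: Luminescence-based dose-response confirmation of ultra-high-throughput screening hits, measuring inhibition of SENP7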
T3 sequence (Q9BQF6 whole entry): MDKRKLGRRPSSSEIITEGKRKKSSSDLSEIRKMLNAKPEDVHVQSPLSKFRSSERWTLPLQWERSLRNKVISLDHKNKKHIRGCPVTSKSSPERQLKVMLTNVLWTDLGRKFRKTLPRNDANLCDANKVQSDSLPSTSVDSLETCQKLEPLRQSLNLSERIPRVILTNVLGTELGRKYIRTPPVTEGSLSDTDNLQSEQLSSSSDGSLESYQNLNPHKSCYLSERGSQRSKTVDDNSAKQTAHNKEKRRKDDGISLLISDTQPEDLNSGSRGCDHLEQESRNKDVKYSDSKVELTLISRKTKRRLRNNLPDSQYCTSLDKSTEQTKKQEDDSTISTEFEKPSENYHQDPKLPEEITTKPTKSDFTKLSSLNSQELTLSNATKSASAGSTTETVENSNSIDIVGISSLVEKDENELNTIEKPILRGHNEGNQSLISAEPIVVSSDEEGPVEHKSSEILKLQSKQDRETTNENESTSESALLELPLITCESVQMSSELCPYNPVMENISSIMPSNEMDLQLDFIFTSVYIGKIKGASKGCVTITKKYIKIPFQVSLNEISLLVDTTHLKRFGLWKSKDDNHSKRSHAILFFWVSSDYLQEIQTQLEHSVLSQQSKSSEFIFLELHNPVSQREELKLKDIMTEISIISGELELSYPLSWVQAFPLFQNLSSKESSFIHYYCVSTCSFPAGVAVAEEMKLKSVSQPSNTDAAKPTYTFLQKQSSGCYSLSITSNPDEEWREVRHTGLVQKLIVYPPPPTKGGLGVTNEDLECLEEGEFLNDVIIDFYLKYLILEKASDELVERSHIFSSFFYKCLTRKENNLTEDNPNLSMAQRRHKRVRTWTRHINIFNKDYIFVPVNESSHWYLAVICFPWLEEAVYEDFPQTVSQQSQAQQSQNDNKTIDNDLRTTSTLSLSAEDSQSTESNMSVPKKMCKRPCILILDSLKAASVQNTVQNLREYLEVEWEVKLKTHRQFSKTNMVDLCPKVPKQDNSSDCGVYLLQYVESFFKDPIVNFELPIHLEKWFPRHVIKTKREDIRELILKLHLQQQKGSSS

[13] = molecular target: T4, Sentrin-specific protease 6 (Homo sapiens, UniProt Q9GZR1); assay type: functional;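 also: Luminescence-based dose-response confirmatory assay of SENP6 inhibition, following up an ultra-high-throughput screen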
T4 sequence (Q9GZR1 whole entry): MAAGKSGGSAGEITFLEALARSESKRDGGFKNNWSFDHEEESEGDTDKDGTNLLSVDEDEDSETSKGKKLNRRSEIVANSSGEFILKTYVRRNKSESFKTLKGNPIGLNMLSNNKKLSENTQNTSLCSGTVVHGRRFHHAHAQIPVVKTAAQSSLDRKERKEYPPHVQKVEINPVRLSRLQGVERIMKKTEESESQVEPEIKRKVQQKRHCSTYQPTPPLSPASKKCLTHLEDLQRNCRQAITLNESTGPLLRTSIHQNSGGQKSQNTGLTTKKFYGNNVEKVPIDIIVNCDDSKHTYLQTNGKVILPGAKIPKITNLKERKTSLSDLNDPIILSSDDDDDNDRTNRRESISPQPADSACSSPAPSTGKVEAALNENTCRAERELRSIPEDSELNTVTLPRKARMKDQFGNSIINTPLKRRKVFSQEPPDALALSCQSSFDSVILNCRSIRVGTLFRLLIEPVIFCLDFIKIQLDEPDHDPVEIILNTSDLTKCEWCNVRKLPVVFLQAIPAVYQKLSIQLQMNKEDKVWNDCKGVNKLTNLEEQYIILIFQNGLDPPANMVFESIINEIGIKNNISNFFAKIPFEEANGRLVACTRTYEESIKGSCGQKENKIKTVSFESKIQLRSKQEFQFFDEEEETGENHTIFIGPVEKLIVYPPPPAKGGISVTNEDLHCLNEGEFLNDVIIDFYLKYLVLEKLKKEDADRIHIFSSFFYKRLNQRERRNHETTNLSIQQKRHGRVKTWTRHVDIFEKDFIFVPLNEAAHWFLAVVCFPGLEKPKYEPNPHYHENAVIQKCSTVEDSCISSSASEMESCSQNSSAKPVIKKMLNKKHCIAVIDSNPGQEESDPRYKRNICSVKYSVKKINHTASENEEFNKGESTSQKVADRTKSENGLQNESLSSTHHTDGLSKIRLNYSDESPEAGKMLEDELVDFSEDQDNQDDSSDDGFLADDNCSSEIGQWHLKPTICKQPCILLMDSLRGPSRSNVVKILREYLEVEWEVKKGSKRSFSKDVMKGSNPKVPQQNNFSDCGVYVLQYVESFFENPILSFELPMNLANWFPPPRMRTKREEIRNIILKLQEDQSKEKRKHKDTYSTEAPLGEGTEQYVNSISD

[14] = molecular target: T5, Caspase-3 (Homo sapiens, UniProt P42574); assay type: functional;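 also: Dose-response selectivity test against caspase-3 for candidate inhibitors of sentrin-specific proteases (SENPs)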
T5 sequence (P42574 whole entry): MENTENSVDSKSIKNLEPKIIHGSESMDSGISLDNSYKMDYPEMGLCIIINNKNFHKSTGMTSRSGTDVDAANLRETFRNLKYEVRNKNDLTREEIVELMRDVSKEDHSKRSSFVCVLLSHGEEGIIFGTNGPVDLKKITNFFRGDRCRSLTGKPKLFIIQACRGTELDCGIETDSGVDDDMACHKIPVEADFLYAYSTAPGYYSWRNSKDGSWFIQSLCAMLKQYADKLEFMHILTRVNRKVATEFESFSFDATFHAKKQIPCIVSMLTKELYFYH

[15] = molecular target: T6, Cysteine protease ATG4B (Homo sapiens, UniProt Q9Y4P1); assay type: functional;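 also: Fluorescence-based dose-response confirmation assay measuring inhibition of ATG4B activity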
T6 sequence (Q9Y4P1 whole entry): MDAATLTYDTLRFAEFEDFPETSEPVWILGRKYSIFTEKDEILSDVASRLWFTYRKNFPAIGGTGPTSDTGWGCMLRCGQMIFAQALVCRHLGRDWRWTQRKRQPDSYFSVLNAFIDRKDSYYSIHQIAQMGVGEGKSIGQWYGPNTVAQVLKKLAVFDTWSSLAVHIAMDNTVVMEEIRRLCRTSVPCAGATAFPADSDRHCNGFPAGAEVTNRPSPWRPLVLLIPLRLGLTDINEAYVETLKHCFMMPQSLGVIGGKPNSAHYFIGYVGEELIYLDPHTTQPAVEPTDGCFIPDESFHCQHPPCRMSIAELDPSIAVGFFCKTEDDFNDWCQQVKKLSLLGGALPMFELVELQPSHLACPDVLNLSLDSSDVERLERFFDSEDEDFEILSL

[16] = molecular target: Phospholipase A2 (Homo sapiens, UniProt P04054); assay type: functional;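 also: confirmatory dose-response counterscreen on phospholipase A2, testing hits that came from an ultra-high-throughput screen for ATG4B inhibitors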
Chain of Phospholipase A2 (P04054 whole entry): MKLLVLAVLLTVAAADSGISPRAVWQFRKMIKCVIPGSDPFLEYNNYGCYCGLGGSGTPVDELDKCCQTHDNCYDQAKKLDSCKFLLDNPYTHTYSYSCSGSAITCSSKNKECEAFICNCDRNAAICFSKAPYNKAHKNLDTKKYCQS

[17] = molecular target: Eukaryotic translation initiation factor 4E (Mus musculus, UniProt P63073); assay: blockers of eIF4G binding by eIF4E – biochemical, TR-FRET, dose response (AID 855); assay type: functional;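 also: potency for disrupting eIF4E binding to eIF4GI seen as loss of FRET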
Chain of Eukaryotic translation initiation factor 4E (P63073 whole entry): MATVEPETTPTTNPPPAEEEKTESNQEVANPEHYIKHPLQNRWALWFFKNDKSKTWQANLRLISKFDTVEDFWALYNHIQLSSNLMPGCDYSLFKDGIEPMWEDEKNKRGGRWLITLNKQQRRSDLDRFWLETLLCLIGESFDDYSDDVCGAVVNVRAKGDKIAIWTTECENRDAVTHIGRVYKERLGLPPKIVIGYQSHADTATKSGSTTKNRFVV

[18] = molecular target: T7, High affinity choline transporter 1 (Homo sapiens, UniProt Q9GZV3); assay: human choline transporter blockers, potency – cell-based, 10-point CRC, membrane potential dye, dose response (AID 588401); assay type: functional;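 also: membrane potential dye fluorescence of choline-evoked depolarization via CHT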
T7 sequence (Q9GZV3 whole entry): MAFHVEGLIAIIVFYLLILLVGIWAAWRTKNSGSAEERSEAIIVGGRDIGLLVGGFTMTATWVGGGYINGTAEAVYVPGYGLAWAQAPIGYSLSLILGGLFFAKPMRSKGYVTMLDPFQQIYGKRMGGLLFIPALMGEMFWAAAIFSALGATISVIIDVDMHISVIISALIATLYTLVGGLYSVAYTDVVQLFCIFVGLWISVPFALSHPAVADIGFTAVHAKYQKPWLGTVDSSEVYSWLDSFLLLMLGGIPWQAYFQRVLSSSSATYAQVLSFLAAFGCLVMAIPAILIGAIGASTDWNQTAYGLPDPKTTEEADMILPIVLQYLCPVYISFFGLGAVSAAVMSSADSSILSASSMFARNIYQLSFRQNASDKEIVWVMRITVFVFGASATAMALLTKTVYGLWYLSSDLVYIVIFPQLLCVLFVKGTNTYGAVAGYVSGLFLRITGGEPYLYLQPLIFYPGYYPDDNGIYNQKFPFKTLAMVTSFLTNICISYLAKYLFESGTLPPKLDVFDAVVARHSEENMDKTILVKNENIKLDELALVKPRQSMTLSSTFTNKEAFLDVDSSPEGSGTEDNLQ

[19] = molecular target: T7, High affinity choline transporter 1; assay: human choline transporter blockers, potency – cell-based, 5-point CRC, membrane potential dye, dose response (AID 504840); assay type: functional
[20] = molecular target: Adenosylmethionine-8-amino-7-oxononanoate aminotransferase (Mycobacterium tuberculosis, UniProt P9WQ81); assay: Mycobacterium tuberculosis BioA enzyme inhibitor Measured in Biochemical System Using Plate Reader - 2163-02_Inhibitor_Dose_CherryPick_Activity.; assay type: functional, Mycobacterium tuberculosis UT205
Chain of Adenosylmethionine-8-amino-7-oxononanoate aminotransferase (P9WQ81 whole entry): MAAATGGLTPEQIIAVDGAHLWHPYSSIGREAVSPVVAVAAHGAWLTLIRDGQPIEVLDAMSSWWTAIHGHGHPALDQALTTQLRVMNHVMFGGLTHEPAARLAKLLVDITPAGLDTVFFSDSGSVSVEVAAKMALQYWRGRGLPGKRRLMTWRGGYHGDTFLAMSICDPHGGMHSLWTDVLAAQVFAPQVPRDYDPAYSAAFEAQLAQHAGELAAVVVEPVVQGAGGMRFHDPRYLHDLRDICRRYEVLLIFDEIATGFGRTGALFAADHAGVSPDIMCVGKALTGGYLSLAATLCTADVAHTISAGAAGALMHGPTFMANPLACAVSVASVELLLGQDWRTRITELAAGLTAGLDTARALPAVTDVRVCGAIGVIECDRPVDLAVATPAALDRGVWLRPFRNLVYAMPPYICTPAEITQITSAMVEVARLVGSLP

[21] = molecular target: Cytochrome P450 2C9 (Homo sapiens, UniProt P11712)
Chain of Cytochrome P450 2C9 (P11712 whole entry): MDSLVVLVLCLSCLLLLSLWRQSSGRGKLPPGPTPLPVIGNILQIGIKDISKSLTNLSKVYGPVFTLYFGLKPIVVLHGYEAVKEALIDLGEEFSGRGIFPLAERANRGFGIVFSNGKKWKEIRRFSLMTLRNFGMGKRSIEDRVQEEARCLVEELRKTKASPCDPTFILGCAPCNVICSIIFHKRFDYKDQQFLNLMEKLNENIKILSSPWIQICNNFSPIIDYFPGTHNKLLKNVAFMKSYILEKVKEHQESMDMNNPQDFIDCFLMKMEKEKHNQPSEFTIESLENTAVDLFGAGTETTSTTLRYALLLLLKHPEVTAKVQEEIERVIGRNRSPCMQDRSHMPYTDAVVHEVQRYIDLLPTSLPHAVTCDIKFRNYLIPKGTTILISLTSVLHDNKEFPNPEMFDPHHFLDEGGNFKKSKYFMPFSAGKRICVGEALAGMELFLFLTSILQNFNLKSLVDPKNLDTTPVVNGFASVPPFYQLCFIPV

CCCCc1oc2ccccc2c1C(=O)c1cc(I)c(OCCN(CC)CC)c(I)c1 [AMIODARONE HYDROCHLORIDE]
EC50 [1]: 7.82 µM (active) | GI50 [2]: 5.06 µM (inactive) | GI50 [3]: 3.77 µM (inactive) | AC50 [4]: 4.87 µM (active) | IC50 [5]: > 20 µM (inactive)

CCCCCCCCOC(=O)c1cc([N+](=O)[O-])c(Sc2[nH]cnc3ncnc2-3)c([N+](=O)[O-])c1
GI50 [2]: 0.184 µM (active) | AC50 [6]: 2.18 µM (active) | AC50 [7]: 2.81 µM (active) | GI50 [3]: 0.912 µM (active) | AC50 [8]: 11.5 µM (active) | GI50 [9]: 0.152 µM (active) | AC50 [10]: 10.6 µM (active)

O=C(COC(=O)c1ccc([N+](=O)[O-])s1)NCc1ccccc1
IC50 [11]: 12.9 µM (active) | IC50 [12]: 19.1 µM (active) | IC50 [13]: 12.8 µM (active) | IC50 [14]: 23.4 µM (active)

O=C(Nc1ccccc1N1CCN(c2ccccc2)CC1)c1ccccc1
IC50 [15]: 9.27 µM (active) | IC50 [16]: 6.48 µM (active)

O=c1[nH]ncc(N2CCCC2)c1Cl
IC50 [17]: 50 µM (inactive) | IC50 [18]: 7.51 µM (active) | IC50 [19]: 8.71 µM (active)

CCC(Sc1nc2ccsc2c(=O)n1Cc1ccc(C(=O)O)cc1)C(=O)Nc1cccc(OC)c1 (stereo unspecified)
AC50 [20]: 4.08 µM (active)

NC(=O)c1ccc(-c2ncc(-c3ccccc3)o2)cc1
AC50 [21]: 2.51 µM (inconclusive) | IC50 [11]: 51.7 µM (active) | IC50 [12]: 6.11 µM (active) | IC50 [13]: 33.9 µM (active) | IC50 [14]: 13.1 µM (active)

O=[N+]([O-])c1ccc(Sc2ncc3ccccn23)nc1
IC50 [18]: 1.13 µM (active) | IC50 [19]: 3.9 µM (active)

CCCCCCCC(=O)O[C@H]1[C@H]2[C@@H](CC1(C)C)C(=O)[C@]13O[C@H]1C(=O)[C@]1(CO1)[C@]23C
GI50 [2]: 0.0904 µM (active) | GI50 [3]: 3.33 µM (inactive) | GI50 [9]: 0.1 µM (active)

NC(=O)/C(=C\c1ccccc1)NC(=O)/C=C/c1ccccc1
IC50 [15]: 19.1 µM (active) | IC50 [16]: 15.5 µM (active)

Cc1noc(C)c1COc1ccc(C(=O)OCC(=O)NCc2ccccc2Cl)cc1
IC50 [15]: 22.5 µM (inactive) | IC50 [16]: 6.59 µM (active)

C[C@@H](C(=O)N1CCN(Cc2ccc3c(c2)OCO3)CC1)n1nnc2ccccc2c1=O
AC50 [20]: 4.11 µM (active)

CCn1cnc2sc(-c3ccccc3)cc2c1=O
IC50 [11]: 43.8 µM (active) | IC50 [12]: 9.66 µM (active) | IC50 [13]: 32.2 µM (active) | IC50 [14]: 12.5 µM (active)
